Literature values as cited in patent publication US20180140566A1, “ACETAMINOPHEN AND TRAMADOL COMPOUND ORAL SOLUTION” (BORA PHARMACEUTICALS CO., LTD., priority 2016, published 2018).

| SMILES | amount of acetaminophen dissolved per milliliter of water (per milliliter (mL) of water, at 25 degrees Celsius) | solubility in acetone (acetone, in words) | solubility in water (water, in words) |
| --- | --- | --- | --- |
| CC(=O)Nc1ccc(O)cc1 [acetaminophen] | no more than 14.00 mg |  |  |
| COc1cccc(C2(O)CCCCC2CN(C)C)c1 (stereo not drawn) [Tramadol, tramadol] |  | hardly dissolves | makes great aqueous solutions |
